Assay results as given in ChEMBL document CHEMBL4411335, “Identification and Optimization of Novel Small c-Abl Kinase Activators Using Fragment and HTS Methodologies” (J Med Chem, 2019).
In brackets after ≈: the same amount, converted by molar mass.

Assays:
[1] = Kinetic solubility of the compound at pH 7.4 after 1 hr by CLND-based assay; format: physicochemical; conditions: buffer, read-out: Kinetic_solubility
[2] = Permeability of the compound at […] after 3 hrs by artificial membrane permeability assay; format: ADME; conditions: PAMPA; read-out: permeability
[3] = target: Tyrosine-protein kinase ABL1 (Homo sapiens, UniProt P00519, D382N); test: Displacement of Myr-GQQPGKVLGDQRRPSL(K-TAMRA)G-amide from N-terminal-truncated human c-ABL D382N mutant (46 to 534 residues) after 30 mins by fluorescence polarization binding assay
Chain of Tyrosine-protein kinase ABL1 (Homo sapiens, UniProt P00519, D382N) (P00519 as listed by the source D382N): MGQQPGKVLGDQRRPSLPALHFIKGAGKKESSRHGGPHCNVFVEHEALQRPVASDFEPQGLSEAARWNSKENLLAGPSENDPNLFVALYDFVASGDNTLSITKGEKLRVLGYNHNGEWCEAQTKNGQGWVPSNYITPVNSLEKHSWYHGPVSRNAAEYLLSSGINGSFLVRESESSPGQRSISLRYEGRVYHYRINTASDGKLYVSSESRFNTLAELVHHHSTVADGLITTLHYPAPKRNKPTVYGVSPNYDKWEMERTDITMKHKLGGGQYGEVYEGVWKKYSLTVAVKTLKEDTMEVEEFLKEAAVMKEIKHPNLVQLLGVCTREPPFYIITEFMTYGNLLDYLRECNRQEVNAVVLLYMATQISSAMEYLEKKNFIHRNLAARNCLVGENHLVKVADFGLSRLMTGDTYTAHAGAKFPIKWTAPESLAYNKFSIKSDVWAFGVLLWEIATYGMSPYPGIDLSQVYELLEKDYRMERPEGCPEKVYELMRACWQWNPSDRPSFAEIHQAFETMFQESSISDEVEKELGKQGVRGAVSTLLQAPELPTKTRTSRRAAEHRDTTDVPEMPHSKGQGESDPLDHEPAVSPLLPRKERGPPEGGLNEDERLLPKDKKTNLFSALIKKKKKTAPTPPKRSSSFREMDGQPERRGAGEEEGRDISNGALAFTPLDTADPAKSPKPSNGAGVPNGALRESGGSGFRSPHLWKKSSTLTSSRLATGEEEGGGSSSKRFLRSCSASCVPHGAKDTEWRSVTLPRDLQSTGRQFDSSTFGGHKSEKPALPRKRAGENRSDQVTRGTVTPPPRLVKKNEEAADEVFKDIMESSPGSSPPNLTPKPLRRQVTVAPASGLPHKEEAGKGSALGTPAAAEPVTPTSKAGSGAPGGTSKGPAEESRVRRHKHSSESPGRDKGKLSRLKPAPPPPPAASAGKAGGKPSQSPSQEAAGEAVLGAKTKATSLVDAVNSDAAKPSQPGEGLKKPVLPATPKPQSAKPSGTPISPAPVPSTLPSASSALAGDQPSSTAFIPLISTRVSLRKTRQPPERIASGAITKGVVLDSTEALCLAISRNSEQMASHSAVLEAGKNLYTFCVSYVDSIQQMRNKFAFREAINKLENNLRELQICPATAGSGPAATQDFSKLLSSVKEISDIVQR

[4] = target: T1, Tyrosine-protein kinase ABL1 (Homo sapiens, UniProt P00519); test: Activation of full length human 6His-tagged c-Abl expressed in baculovirus expression system using abltide as substrate after 2 hrs by IMAP assay; conditions: read-out: pIC50 (converted)
T1 sequence (P00519 whole entry): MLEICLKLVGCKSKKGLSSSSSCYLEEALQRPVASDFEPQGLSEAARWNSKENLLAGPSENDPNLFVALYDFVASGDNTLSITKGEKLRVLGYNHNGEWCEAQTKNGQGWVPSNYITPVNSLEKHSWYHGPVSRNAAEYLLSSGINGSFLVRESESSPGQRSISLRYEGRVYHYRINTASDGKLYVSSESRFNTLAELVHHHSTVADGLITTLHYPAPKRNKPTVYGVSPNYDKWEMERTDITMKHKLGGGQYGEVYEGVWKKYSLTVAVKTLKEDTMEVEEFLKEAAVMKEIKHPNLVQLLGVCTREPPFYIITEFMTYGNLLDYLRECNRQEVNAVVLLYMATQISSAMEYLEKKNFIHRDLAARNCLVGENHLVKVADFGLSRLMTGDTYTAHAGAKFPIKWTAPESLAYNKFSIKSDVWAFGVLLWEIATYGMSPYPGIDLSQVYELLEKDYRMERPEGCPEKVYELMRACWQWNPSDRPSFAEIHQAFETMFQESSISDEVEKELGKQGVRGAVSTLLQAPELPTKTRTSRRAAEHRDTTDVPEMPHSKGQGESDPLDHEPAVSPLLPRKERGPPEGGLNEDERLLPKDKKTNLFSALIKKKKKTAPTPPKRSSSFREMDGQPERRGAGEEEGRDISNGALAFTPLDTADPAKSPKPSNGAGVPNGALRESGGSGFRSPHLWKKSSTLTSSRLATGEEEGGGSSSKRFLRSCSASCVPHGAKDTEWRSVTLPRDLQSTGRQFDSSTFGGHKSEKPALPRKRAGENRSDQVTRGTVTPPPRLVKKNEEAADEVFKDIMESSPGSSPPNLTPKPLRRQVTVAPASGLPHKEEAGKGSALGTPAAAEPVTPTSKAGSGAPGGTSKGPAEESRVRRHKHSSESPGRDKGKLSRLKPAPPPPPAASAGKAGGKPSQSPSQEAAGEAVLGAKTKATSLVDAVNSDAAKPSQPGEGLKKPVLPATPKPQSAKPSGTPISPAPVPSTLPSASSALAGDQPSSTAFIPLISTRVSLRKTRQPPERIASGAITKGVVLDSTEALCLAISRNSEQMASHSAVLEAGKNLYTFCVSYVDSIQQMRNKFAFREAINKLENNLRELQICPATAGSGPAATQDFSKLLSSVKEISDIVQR

[5] = target: T1, Tyrosine-protein kinase ABL1; test: Induction of human c-ABL phosphorylation at Y245/Y412 residues in bacmam-induced HEK-MSR2 cell lysates by in-cell Western blot analysis; format: subcellular, Lysate
[6] = Terminal plasma concentration in CD1 mouse at 100 mg/kg, ip after 180 mins; format: ADME, organism-based; conditions: read-out: Cp(T)
Mus musculus [7] = test: In vivo activation of c-ABL in CD1 mouse assessed as fold increase in phosphorylated CRKL level at 100 mg/kg, ip after 180 mins relative to total CRK-L protein level; format: functional
[8] = Intrinsic clearance in CD1 mouse liver microsomes at 0.5 uM measured up 60 mins in presence of NADPH by LC-MS/MS analysis; format: ADME, Microsome; conditions: 1 h
[9] = Terminal plasma concentration in CD1 mouse at 100 mg/kg, ip after 40 mins; format: ADME, organism-based; conditions: read-out: Cp(T)
Mus musculus [10] = test: In vivo activation of c-ABL in CD1 mouse assessed as fold increase in phosphorylated CRKL level at 100 mg/kg, ip after 40 mins relative to total CRK-L protein level; format: functional
[11] = Toxicity in CD1 mouse assessed as induction of hemolysis at 100 mg/kg, BID for 10 days; format: organism-based; conditions: in vivo, 240 h

Row | solubility kinetic at 1 h [1] [µM] | Papp at 3 h [2] [×10⁻⁶ cm/s] | IC50 [3] [nM] | EC50 for c-Abl activation [4] [nM] | EC50 [5] [nM] | concentration at 3 h [6] [ng/mL] | CLint [8] [µL/min/mg] | concentration at 40 min [9] [ng/mL] | Compound | fold change (FC) (Mus musculus [7]) | fold change (FC) (Mus musculus [10]) | Activity [11]
1 | < 1 | 19.6 | 316 | 2510 | 31600 |  |  |  | CC(=O)Nc1nc(-c2ccc(Cl)c(Cl)c2)cs1 |  |  | 
2 | 416 (≈ 148 µg/mL) | 25 | 501 | 398 | 2510 |  |  |  | O=C1CCCC(C(=O)NC2=NN(c3ccc(Cl)c(Cl)c3)CC2)N1 (stereo unspecified) |  |  | 
3 | 69 (≈ 15.9 µg/mL) | 32 | 2000 | 6310 | 12600 |  |  |  | NC1=NN(c2ccc(Cl)c(Cl)c2)CC1 |  |  | 
4 | 173 (≈ 49.5 µg/mL) | 41 | 1580 | 2000 | 10000 |  |  |  | CC(=O)NC1=NN(c2ccc(Cl)c(Cl)c2)[C@H](C)C1 |  |  | 
5 | 39 (≈ 12.1 µg/mL) | 35.5 | 316 | 251 | 794 | 17600 | < 10 | 15600 | N#CCCC(=O)NC1=NN(c2ccc(Cl)c(Cl)c2)CC1 | 35 | 19 | Toxic
6 | 36 (≈ 12.7 µg/mL) | 28 | 200 | 126 | 1580 |  |  |  | O=C(NC1=NN(c2ccc(Cl)c(Cl)c2)CC1)c1ccncc1F |  |  | 
7 | 11 (≈ 3.69 µg/mL) | 35 | 2000 | 2000 | > 50100 |  |  |  | O=C(NC1=NN(c2ccc(Cl)c(Cl)c2)CC1)c1ccccn1 |  |  | 
8 | 4 (≈ 1.34 µg/mL) | 30.5 | 251 | 158 | 631 |  |  |  | O=C(NC1=NN(c2ccc(Cl)c(Cl)c2)CC1)c1cccnc1 |  |  | 
9 | 12 (≈ 4.2 µg/mL) | 34 | 158 | 39.8 | 316 |  |  |  | Cc1ncncc1C(=O)NC1=NN(c2ccc(Cl)c(Cl)c2)CC1 |  |  | 
10 | 10 (≈ 2.71 µg/mL) | 9.4 | 2510 | 39800 | > 50100 |  |  |  | CC(=O)Nc1nc(-c2ccc(F)c(Cl)c2)cs1 |  |  | 
11 | 9 (≈ 3.15 µg/mL) | 42 | 316 | 20 | 100 |  |  |  | C[C@H]1CN(c2ccc(Cl)c(Cl)c2)N=C1NC(=O)c1cncnc1 |  |  | 
12 | 1 (≈ 0.267 µg/mL) | 14 | 794 | 31600 | > 50100 |  |  |  | CC(=O)Nc1nc(-c2ccc(Cl)c(C)c2)cs1 |  |  | 
13 | 3 (≈ 0.94 µg/mL) | 22.7 | 251 | 158 | > 50100 |  |  |  | O=C(Nc1nc(-c2ccc(Cl)c(Cl)c2)cs1)C1CC1 |  |  | 
14 | 31 (≈ 8.44 µg/mL) | 36 | 398 | 316 | 794 |  |  |  | CC(=O)NC1=NN(c2ccc(Cl)c(Cl)c2)CC1 |  |  | 
